Experimental data as given in patent US8614217B2 (priority 2008, dated 2013).

Experiment: log P(HCOOH) (HPLC/MS)
Type: physicochemical
Details: HCOOH (formic acid); read-out: log P(HCOOH)

Row | Structure (SMILES) | chromatographic logP
1 | O=C1c2ccccc2C(=O)N1OCc1cccc(N2C(=O)c3ccccc3C2=O)n1 [2-(6-{[(1,3-dioxo-1,3-dihydro-2H-isoindol-2-yl)oxy]methyl}pyridin-2-yl)-1H-isoindole-1,3(2H)-dione] | 2.44
2 | Cn1nnnc1C(=NOCc1cccc(N2C(=O)c3ccccc3C2=O)n1)c1ccccc1 [2-{6-[({[(1-methyl-1H-tetrazol-5-yl)(phenyl)methylene]amino}oxy)methyl]pyridin-2-yl}-1H-isoindole-1,3(2H)-dione] | 3.04
3 | NOCc1cccc(N)n1 [6-[(aminooxy)methyl]pyridin-2-amine] | < -0.23
4 | Cn1nnnc1C(=NOCc1cccc(N)n1)c1ccccc1 [6-[({[(1-methyl-1H-tetrazol-5-yl)(phenyl)methylene]amino}oxy)methyl]pyridin-2-amine] | 1.14
5 | Cn1nnnc1/C(=N\OCc1cccc(NC(=O)OCCCCCl)n1)c1ccccc1 [Example 67, 4-chlorobutyl {6-[({[(Z)-(1-methyl-1H-tetrazol-5-yl)(phenyl)methylene]amino}oxy)methyl]pyridin-2-yl}carbamate] | 3.67

Same assay, conditions: HCOOH; read-out: log P(HCOOH)

Row | Structure (SMILES) | chromatographic logP
6 | Cn1nnnc1C(=NOCc1cccc(N)n1)c1ccccc1 [6-[({[(1-methyl-1H-tetrazol-5-yl)(phenyl)methylene]amino}oxy)methyl]pyridin-2-amine] | 1.13

Same assay, conditions: HPLC on reversed phase columns, EEC directive 79/831 Annex V.A8; pH 2.7, 0.1% formic acid in water / acetonitrile gradient

Row | Structure (SMILES) | log p
7 | Cc1nnnn1C(=NOCc1csc(NC(=O)C2CCOCC2)n1)c1ccccc1 (mixture of isomers) [Example 73] | 2.49
8 | Cc1nnnn1C(=NOCc1csc(NC(=O)COC2CC(C)CCC2C(C)C)n1)c1ccccc1 (mixture of isomers) [Example 86] | 5.48
9 | Cn1nnnc1C(=NOCc1cccc(NC(=O)CCOc2ccccc2)n1)c1cccc(F)c1 [Example 10] | 3.64
10 | C#CCCOC(=O)Nc1cccc(CON=C(c2cccc(F)c2)c2nnnn2C)n1 [Example 13] | 3.21
11 | C#CCCOC(=O)Nc1cccc(CON=C(c2ccccc2)n2nnnc2C)n1 [Example 17] | 3.15
12 | Cc1nnnn1C(=NOCc1cccc(NC(=O)OCCCCCl)n1)c1ccccc1 [Example 20] | 3.73
13 | Cc1nnnn1C(=NOCc1cccc(NC(=O)OC2CCCCCC2)n1)c1ccccc1 [Example 21] | 4.71
14 | C#CCCOC(=O)Nc1cccc(CON=C(c2cccc(F)c2)n2nnnc2C)n1 [Example 23] | 3.21
15 | C#CCCCC(=O)Nc1cccc(CON=C(c2cccc(F)c2)n2nnnc2C)n1 [Example 35] | 3.15
16 | Cc1nnnn1C(=NOCc1cccc(NC(=O)CC2CCCCC2)n1)c1ccccc1 [Example 40] | 4.12
17 | Cc1nnnn1C(=NOCc1cccc(NC(=O)CC2CCCCC2)n1)c1cccc(F)c1 [Example 41] | 4.23
18 | Cc1nnnn1C(=NOCc1cccc(NC(=O)CCC2CCCC2)n1)c1ccccc1 [Example 44] | 4.25
19 | Cc1nnnn1C(=NOCc1cccc(NC(=O)CCC2CCCC2)n1)c1cccc(F)c1 [Example 45] | 4.33
20 | Cc1nnnn1C(=NOCc1cccc(NC(=O)C(F)(F)Sc2ccccc2)n1)c1ccccc1 [Example 48] | 4.2
21 | C#CCCCC(=O)Nc1cccc(CON=C(c2ccccc2)c2nnnn2C)n1 [Example 55] | 2.98
22 | C=CCOC(=O)Nc1cccc(CON=C(c2ccccc2)c2nnnn2C)n1 [Example 56] | 3.21
23 | C=CCCOC(=O)Nc1cccc(CON=C(c2ccccc2)c2nnnn2C)n1 [Example 57] | 3.51
24 | C=C(C)OC(=O)Nc1nc(CON=C(c2ccccc2)n2nnnc2C)cs1 [Example 104] | 2.96
25 | C=C(C)OC(=O)Nc1cccc(CON=C(c2ccccc2)n2nnnc2C)n1 [Example 107] | 3.21
26 | Cc1nnnn1C(=NOCc1cccc(NC(=O)C2(c3ccccc3)CC2)n1)c1ccccc1 [Example 110] | 2.55
27 | Cc1nnnn1C(=NOCc1cccc(NC(=O)C(F)(F)C(F)(F)C(F)(F)C(F)(F)C(F)(F)C(F)(F)C(F)(F)F)n1)c1ccccc1 [Example 119] | 5.93
28 | Cc1nnnn1C(=NOCc1cccc(NC(=O)c2ccc(Cl)nc2)n1)c1ccccc1 [Example 121] | 3.15

Row | Structure (SMILES) | log p
29 | Cc1nnnn1C(=NOCc1cccc(NC(=O)CC2CC2)n1)c1ccccc1 [Example 124] | 2.94
30 | Cc1nnnn1C(=NOCc1cccc(NC(=O)CO[C@@H]2C[C@H](C)CC[C@H]2C(C)C)n1)c1ccccc1 [Example 126] | 5.95
31 | Cc1nnnn1C(=NOCc1cccc(NC(=O)C2CCC(=O)O2)n1)c1ccccc1 (stereo not drawn) [Example 130] | 2.44
32 | Cc1nnnn1C(=NOCc1cccc(NC(=O)COCc2ccccc2)n1)c1ccccc1 [Example 144] | 3.73
33 | COC(=O)CCCCC(=O)Nc1cccc(CON=C(c2ccccc2)n2nnnc2C)n1 [Example 145] | 2.86
34 | CCOC(=O)CCCC(=O)Nc1cccc(CON=C(c2ccccc2)n2nnnc2C)n1 [Example 148] | 2.98
35 | Cc1nnnn1C(=NOCc1cccc(NC(=O)CSCc2ccccc2)n1)c1ccccc1 [Example 151] | 3.73
36 | Cn1nnnc1C(=NOCc1csc(NC(=O)CC2CC2)n1)c1cccc(F)c1 [Example 170] | 2.98
37 | CC1CCC(C(C)C)C(OCC(=O)Nc2nc(CON=C(c3cccc(F)c3)c3nnnn3C)cs2)C1 (stereo not drawn) [Example 172] | 5.47
38 | COCCOCC(=O)Nc1nc(CON=C(c2cccc(F)c2)c2nnnn2C)cs1 [Example 183] | 2.68
39 | COCCOCCOCC(=O)Nc1nc(CON=C(c2cccc(F)c2)c2nnnn2C)cs1 [Example 186] | 2.66
40 | Cn1nnnc1C(=NOCc1csc(NC(=O)C(F)(F)C(F)(F)C(F)(F)F)n1)c1cccc(F)c1 [Example 192] | 3.75
41 | Cn1nnnc1C(=NOCc1csc(NC(=O)CSCc2ccccc2)n1)c1cccc(F)c1 [Example 194] | 3.68
42 | Cn1nnnc1C(=NOCc1csc(NC(=O)CCCOc2ccccc2)n1)c1cccc(F)c1 [Example 196] | 3.7
43 | CC(=O)OCCCCOC(=O)Nc1nc(CON=C(c2cccc(F)c2)c2nnnn2C)cs1 [Example 198] | 3.15
44 | Cn1nnnc1C(=NOCc1csc(NC(=O)CCC2CCCCC2)n1)c1ccccc1 [Example 206] | 4.3
45 | Cn1nnnc1C(=NOCc1cccc(NC(=O)c2cccs2)n1)c1ccccc1 [Example 214] | 3.21
46 | Cn1nnnc1C(=NOCc1cccc(NC(=O)CSCc2ccccc2)n1)c1ccccc1 [Example 218] | 3.73
47 | Cn1nnnc1C(=NOCc1cccc(NC(=O)CCCc2ccsc2)n1)c1ccccc1 [Example 221] | 3.7
48 | Cc1nnnn1C(=NOCc1csc(NC(=O)CCCC2CCCCC2)n1)c1ccccc1 [Example 229] | 4.82
49 | Cn1nnnc1C(=NOCc1csc(NC(=O)Cc2ccsc2)n1)c1cccc(F)c1 [Example 233] | 3.21
50 | Cn1nnnc1C(=NOCc1csc(NC(=O)OCC(Cl)(Cl)Cl)n1)c1ccccc1 [Example 245] | 3.7

Same assay, conditions: HPLC on reversed phase columns, EEC directive 79/831 Annex V.A8; pH 2.7, 0.1% formic acid in water / acetonitrile gradient; read-out: log p

Row | Structure (SMILES) | chromatographic logP
51 | C#CCCCC(=O)Nc1cccc(CON=C(c2ccccc2)n2nnnc2C)n1 [Example 34] | 3.04
52 | Cn1nnnc1/C(=N\OCc1cccc(NC(=O)OCCCCCl)n1)c1ccccc1 [Example 67, 4-chlorobutyl {6-[({[(Z)-(1-methyl-1H-tetrazol-5-yl)(phenyl)methylene]amino}oxy)methyl]pyridin-2-yl}carbamate] | 3.67

Same assay, conditions: HPLC on reversed phase columns, EEC directive 79/831 Annex V.A8; pH 2.7 with 0.1% formic acid in water and acetonitrile

Row | Structure (SMILES) | log p
53 | CC(Oc1ccc(F)cc1)C(=O)Nc1cccc(CON=C(c2ccccc2)c2nnnn2C)n1 (mixture of isomers) [Example 262] | 3.79
54 | C=CCCOC(=O)Nc1cccc(CON=C(c2ccccc2C)c2nnnn2C)n1 (mixture of isomers) [Example 315] | 3.65
55 | C#CCCOC(=O)Nc1cccc(CON=C(c2ccccc2Cl)c2nnnn2C)n1 (mixture of isomers) [Example 372] | 3.21
56 | Cn1nnnc1C(=NOCc1cccc(NC(=O)CCOc2ccccc2)n1)c1ccccc1Cl (mixture of isomers) [Example 373] | 3.63
57 | Cn1nnnc1C(=NOCc1csc(NC(=O)COc2ccccc2Cl)n1)c1ccccc1 [Example 247] | 3.61
58 | Cn1nnnc1C(=NOCc1csc(NC(=O)c2cccc(Cl)c2)n1)c1ccccc1 [Example 248] | 3.73
59 | Cn1nnnc1C(=NOCc1csc(NC(=O)COc2cccc(Cl)c2)n1)c1ccccc1 [Example 249] | 3.7
60 | Cn1nnnc1C(=NOCc1csc(NC(=O)COc2ccc(Cl)cc2)n1)c1ccccc1 [Example 250] | 3.68
61 | CCCCc1ccc(C(=O)Nc2nc(CON=C(c3ccccc3)c3nnnn3C)cs2)cc1 [Example 268] | 4.68
62 | CCOc1ccc(C(=O)Nc2nc(CON=C(c3ccccc3)c3nnnn3C)cs2)cc1 [Example 271] | 3.64
63 | Cn1nnnc1C(=NOCc1csc(NC(=O)CC23CC4CC(CC(C4)C2)C3)n1)c1ccccc1 [Example 278] | 4.69
64 | CC1CCC(C(C)C)C(OCC(=O)Nc2nc(CON=C(c3ccccc3)c3nnnn3C)cs2)C1 (stereo not drawn) [Example 284] | 5.39
65 | COCCOCC(=O)Nc1nc(CON=C(c2ccccc2)c2nnnn2C)cs1 [Example 286] | 2.54
66 | Cn1nnnc1C(=NOCc1csc(NC(=O)COc2ccccc2-c2ccccc2)n1)c1ccccc1 [Example 289] | 4.32
67 | COC(=O)CCCCC(=O)Nc1nc(CON=C(c2cccc(F)c2)c2nnnn2C)cs1 [Example 298] | 2.94
68 | COCCOC(=O)Nc1nc(CON=C(c2cccc(F)c2)c2nnnn2C)cs1 [Example 301] | 2.66
69 | Cc1ccc(C(=O)Nc2cccc(CON=C(c3ccccc3)c3nnnn3C)n2)cc1 [Example 306] | 3.65
70 | Cc1ccccc1C(=O)Nc1cccc(CON=C(c2ccccc2)c2nnnn2C)n1 [Example 307] | 3.5
71 | CCOc1cccc(C(=O)Nc2cccc(CON=C(c3ccccc3)c3nnnn3C)n2)c1 [Example 313] | 3.79
72 | COc1ccccc1C(=O)Nc1nc(CON=C(c2ccccc2)c2nnnn2C)cs1 [Example 322] | 3.5
73 | Cn1nnnc1C(=NOCc1csc(NC(=O)c2ccccc2OC(F)(F)F)n1)c1ccccc1 [Example 325] | 3.61
74 | Cc1ccccc1C(=O)Nc1nc(CON=C(c2ccccc2)c2nnnn2C)cs1 [Example 327] | 3.41
75 | Cn1nnnc1C(=NOCc1cccc(NC(=O)c2ccccc2OC(F)(F)F)n1)c1cccc(F)c1 [Example 328] | 3.9
